The test concerns the target T1, sGC α1/β1 heterodimer (Homo sapiens, UniProt Q02108+Q02153).
T1 construct: expressed in transfected cells; host or cells: CHO-K1 (clone #7, CHO-K1/sGC)
T1 sequence (Q02108 1-690): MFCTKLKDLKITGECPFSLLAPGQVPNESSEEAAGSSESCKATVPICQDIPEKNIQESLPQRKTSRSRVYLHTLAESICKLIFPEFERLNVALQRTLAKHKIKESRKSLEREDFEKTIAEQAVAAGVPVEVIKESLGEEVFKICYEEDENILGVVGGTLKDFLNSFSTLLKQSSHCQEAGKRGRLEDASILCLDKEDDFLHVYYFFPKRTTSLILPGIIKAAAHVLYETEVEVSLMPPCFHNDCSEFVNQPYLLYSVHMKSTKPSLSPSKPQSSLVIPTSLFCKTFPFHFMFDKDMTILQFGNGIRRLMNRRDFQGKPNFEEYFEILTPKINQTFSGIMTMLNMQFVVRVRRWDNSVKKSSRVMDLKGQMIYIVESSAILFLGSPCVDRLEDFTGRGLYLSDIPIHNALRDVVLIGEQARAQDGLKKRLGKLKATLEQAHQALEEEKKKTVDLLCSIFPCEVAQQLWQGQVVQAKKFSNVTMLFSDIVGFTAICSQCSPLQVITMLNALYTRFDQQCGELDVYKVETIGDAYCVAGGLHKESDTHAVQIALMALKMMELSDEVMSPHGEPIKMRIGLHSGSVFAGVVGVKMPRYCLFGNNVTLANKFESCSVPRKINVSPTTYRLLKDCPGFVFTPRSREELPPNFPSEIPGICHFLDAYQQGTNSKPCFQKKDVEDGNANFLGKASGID
T1 sequence (Q02153 1-619): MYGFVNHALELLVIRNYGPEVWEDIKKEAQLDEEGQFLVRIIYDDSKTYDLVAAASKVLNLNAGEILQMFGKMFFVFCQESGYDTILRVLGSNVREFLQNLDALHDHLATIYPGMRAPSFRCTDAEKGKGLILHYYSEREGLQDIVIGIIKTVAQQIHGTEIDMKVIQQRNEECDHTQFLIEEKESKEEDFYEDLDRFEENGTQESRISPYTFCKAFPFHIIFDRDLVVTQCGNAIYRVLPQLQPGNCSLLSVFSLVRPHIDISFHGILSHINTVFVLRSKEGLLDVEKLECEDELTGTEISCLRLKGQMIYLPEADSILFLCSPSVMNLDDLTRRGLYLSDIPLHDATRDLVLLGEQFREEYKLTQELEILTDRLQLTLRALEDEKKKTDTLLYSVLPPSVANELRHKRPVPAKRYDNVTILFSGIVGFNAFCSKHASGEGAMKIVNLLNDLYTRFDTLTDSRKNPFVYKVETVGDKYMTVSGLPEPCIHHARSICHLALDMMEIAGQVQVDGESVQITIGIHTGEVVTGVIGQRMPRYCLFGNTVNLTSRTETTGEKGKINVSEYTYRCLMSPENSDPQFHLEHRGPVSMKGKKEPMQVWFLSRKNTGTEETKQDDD
In words: Cell-based sGC functional assay (CASA assay): cGMP generation in CHO-K1/sGC cells, HTRF detection. The note with it: for EC50: inflection point (IP) of cGMP generation in CHO-K1/sGC cells, 4P fit, activity expressed as percentage of Compound A; for Emax: CHO-K1, percent activation relative to standard Compound A in CHO-K1/sGC cells, read-out: % Act. The method, boiled down: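 cGMP was quantified by HTRF after 1 hr, 37° C exposure of thawed CHO-K1 cells expressing sGC α1/β1 to compound, with or without 1 μM DETA-NO. IBMX (0.5 mM) blocked cGMP breakdown, and DMSO was 2.5% final. Percent of standard Compound A's maximal cGMP was fitted (4P) for inflection point.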

Experimental findings from patent US9796733B2, “Imidazo-pyrazine derivatives useful as soluble guanylate cyclase activators” (Merck Sharp & Dohme Corp., priority 2014, dated 2017) are described below.

A word on the EC50: it is the midpoint of the concentration-response curve.

For `Nc1nc(-c2cn3ccnc3c(CCC(F)(F)C(F)(F)F)n2)nc2c1C(C(=O)NC1CC1)(C1CC1)C(=O)N2` (single isomer, unassigned) [Example 61B, 4-amino-N,5-dicyclopropyl-6-oxo-2-(8-(3,3,4,4,4-pentafluorobutyl)imidazo[1,2-a]pyrazin-6-yl)-6,7-dihydro-5H-pyrrolo[2,3-d]pyrimidine-5-carboxamide], the EC50 is 450 nM. Moreover, the “% Act.” value (percent activation relative to standard Compound A in CHO-K1/sGC cells) came to 83%.

Consider `CC(F)(F)c1ccc(C2(C)C(=O)Nc3nc(-c4cn5ccnc5c(CCC(F)(F)C(F)(F)F)n4)nc(N)c32)cn1` (single isomer, unassigned) [Example 379A, 4-amino-5-(6-(1,1-difluoroethyl)pyridin-3-yl)-5-methyl-2-(8-(3,3,4,4,4-pentafluorobutyl)imidazo[1,2-a]pyrazin-6-yl)-5H-pyrrolo[2,3-d]pyrimidin-6(7H)-one], for which the Emax was determined as 87% and the EC50 was determined as 152 nM.

As to `Nc1nc(-c2cn3ccnc3c(Cc3ccccc3)n2)nc2c1C(C(=O)NC1CC1)(C1CC1)C(=O)N2` (single isomer, unassigned) [Example 40B, 4-amino-2-(8-benzylimidazo[1,2-a]pyrazin-6-yl)-N,5-dicyclopropyl-6-oxo-6,7-dihydro-5H-pyrrolo[2,3-d]pyrimidine-5-carboxamide], the Emax came to 127% and the response was half-maximal at 27 nM (EC50).

For the compound `CC(C)Cc1nc(-c2nc(N)c3c(n2)NC(=O)C3(c2ccc(Cl)cc2)C2CC2)cn2ccnc12` (stereo not drawn) [Example 22B, 4-amino-5-(4-chlorophenyl)-5-cyclopropyl-2-(8-isobutylimidazo[1,2-a]pyrazin-6-yl)-5H-pyrrolo[2,3-d]pyrimidin-6(7H)-one], the Emax came out at 91% and the response was half-maximal at 150 nM (EC50).

In the case of `CC1(c2ccc(F)cc2)C(=O)Nc2nc(-c3cn4ccnc4c(Cc4c(F)ccc(F)c4F)n3)nc(N)c21` (stereo not drawn) [Example 98A, 4-amino-5-(4-fluorophenyl)-5-methyl-2-(8-(2,3,6-trifluorobenzyl)imidazo[1,2-a]pyrazin-6-yl)-5H-pyrrolo[2,3-d]pyrimidin-6(7H)-one], the Emax came to 110% and the midpoint of the response, the EC50, lay at 13 nM.

Take `CCc1cnc2c(CCC(F)(F)C(F)(F)F)nc(-c3nc(N)c4c(n3)NC(=O)C4(C)c3ccc(F)cc3)cn12` (stereo not drawn) [Example 161A, 4-amino-2-(3-ethyl-8-(3,3,4,4,4-pentafluorobutyl)imidazo [1,2-a]pyrazin-6-yl)-5-(4-fluorophenyl)-5-methyl-5H-pyrrolo[2,3-d]pyrimidin-6(7H)-one]: the Emax is 76% and the EC50 was found to be 354 nM.

For `Cc1nc2c(CCC(F)(F)C(F)(F)F)nc(-c3nc(N)c4c(n3)NC(=O)C4(C)c3ccc(F)cc3)cn2c1C#N` (stereo not drawn) [Example 274A, 6-(4-amino-5-(4-fluorophenyl)-5-methyl-6-oxo-6,7-dihydro-5H-pyrrolo[2,3-d]pyrimidin-2-yl)-2-methyl-8-(3,3,4,4,4-pentafluorobutyl)imidazo[1,2-a]pyrazine-3-carbonitrile], the Emax was found to be 100% and the EC50 is 238 nM.

Consider `CC1(c2ccc(OC(F)(F)F)cc2)C(=O)Nc2nc(-c3cn4ccnc4c(CCC(F)(F)F)n3)nc(N)c21` (stereo not drawn) [Example 196B, 4-amino-5-methyl-5-(4-(trifluoromethoxy)phenyl)-2-(8-(3,3,3-trifluoropropyl)imidazo[1,2-a]pyrazin-6-yl)-5H-pyrrolo[2,3-d]pyrimidin-6(7H)-one], for which the Emax came out at 106% and a half-maximal response (EC50) required 267 nM.

For the compound `CCCc1nc(-c2nc(N)c3c(n2)NC(=O)C3(c2ccc(C(F)(F)F)cn2)C2CC2)cn2ccnc12` (stereo not drawn) [Example 341A, 4-amino-5-cyclopropyl-2-(8-propylimidazo[1,2-a]pyrazin-6-yl)-5-(5-(trifluoromethyl)pyridin-2-yl)-5H-pyrrolo[2,3-d]pyrimidin-6(7H)-one], the Emax is 106% and the EC50 is 2100 nM.

With `NC(=O)C1(C2CC2)C(=O)Nc2nc(-c3cn4ccnc4c(Cc4cccc(F)c4)n3)nc(N)c21` (stereo not drawn) [Example 42B, 4-amino-5-cyclopropyl-2-(8-(3-fluorobenzyl)imidazo[1,2-a]pyrazin-6-yl)-6-oxo-6,7-dihydro-5H-pyrrolo[2,3-d]pyrimidine-5-carboxamide], the Emax is 103% and a half-maximal response (EC50) required 32 nM.

For the compound `CC(C)c1nnc(C2(C3CC3)C(=O)Nc3nc(-c4cn5ccnc5c(CCC(F)(F)C(F)(F)F)n4)nc(N)c32)s1` (stereo not drawn) [Example 55A, 4-amino-5-cyclopropyl-5-(5-isopropyl-1,3,4-thiadiazol-2-yl)-2-(8-(3,3,4,4,4-pentafluorobutyl)imidazo[1,2-a]pyrazin-6-yl)-5H-pyrrolo[2,3-d]pyrimidin-6(7H)-one], the Emax worked out at 93% and the EC50 was 634 nM.

`CCC(CC)Cc1nc(-c2nc(N)c3c(n2)NC(=O)C3(C)c2ccc(Cl)cc2)cn2ccnc12` (stereo not drawn) [Example 9A, 4-amino-5-(4-chlorophenyl)-2-(8-(2-ethylbutyl)imidazo[1,2-a]pyrazin-6-yl)-5-methyl-5H-pyrrolo[2,3-d]pyrimidin-6(7H)-one]: the Emax is 134% and the EC50 is 60 nM.

As for `Nc1nc(-c2cn3ccnc3c(Cc3ccc(F)cc3)n2)nc2c1C(c1ccc(F)cn1)(C1CC1)C(=O)N2` (stereo not drawn) [Example 104A, 4-amino-5-cyclopropyl-2-(8-(4-fluorobenzyl)imidazo[1,2-a]pyrazin-6-yl)-5-(5-fluoropyridin-2-yl)-5H-pyrrolo[2,3-d]pyrimidin-6(7H)-one], the Emax came to 132% and the EC50 amounted to 396 nM.

Consider `CCCCc1nc(-c2nc(N)c3c(n2)NC(=O)C3(C)c2ccc(C(F)(F)F)cn2)cn2c(C)cnc12` (stereo not drawn) [Example 167B, 4-amino-2-(8-butyl-3-methylimidazo[1,2-a]pyrazin-6-yl)-5-methyl-5-(5-(trifluoromethyl)pyridin-2-yl)-5H-pyrrolo[2,3-d]pyrimidin-6(7H)-one], for which the Emax is 99% and the response was half-maximal at 41 nM (EC50).

For the compound `CC1(c2ccc(Cl)cc2)C(=O)Nc2nc(-c3cn4ccnc4c(CCCC(F)(F)F)n3)nc(N)c21` (stereo not drawn) [Example 206A, 4-amino-5-(4-chlorophenyl)-5-methyl-2-(8-(4,4,4-trifluorobutyl)imidazo[1,2-a]pyrazin-6-yl)-5H-pyrrolo[2,3-d]pyrimidin-6(7H)-one], the Emax is 116% and it took 21 nM to reach a half-maximal effect (EC50).

Regarding `CC1(c2ccccn2)C(=O)Nc2nc(-c3cn4ccnc4c(Cc4ccc(F)cc4)n3)nc(N)c21` (stereo not drawn) [Example 103B, 4-amino-2-(8-(4-fluorobenzyl)imidazo[1,2-a]pyrazin-6-yl)-5-methyl-5-(pyridin-2-yl)-5H-pyrrolo[2,3-d]pyrimidin-6(7H)-one], the Emax is 85% and the EC50 stood at 18 nM.

For `CC1(c2ccc(F)cc2)C(=O)Nc2nc(-c3cn4ccnc4c(CCCc4ccccc4)n3)nc(N)c21` (stereo not drawn) [Example 5A], the Emax was determined as 109% and the EC50 turned out to be 849 nM.

Turning to `Cc1nnc(C2(C)C(=O)Nc3nc(-c4cn5ccnc5c(CCC(F)(F)C(F)(F)F)n4)nc(N)c32)o1` (stereo not drawn) [Example 57A, 4-amino-5-methyl-5-(5-methyl-1,3,4-oxadiazol-2-yl)-2-(8-(3,3,4,4,4-pentafluorobutyl)imidazo[1,2-a]pyrazin-6-yl)-5H-pyrrolo[2,3-d]pyrimidin-6(7H)-one], the Emax is 101% and the EC50 was 920 nM.
